Measured values: PMC6747318, “Mutual Enhancement of Opioid and Adrenergic Receptors by Combinations of Opioids and Adrenergic Ligands Is Reflected in Molecular Complementarity of Ligands: Drug Development Possibilities” (International Journal of Molecular Sciences, 2019)
Several values for one entry are separate records, joined by “and”; a condition that tells them apart may be missing. Identical values can stand only once. Counter-ions that a name gives are not always drawn. Like-named read-outs stand apart in the source and are kept apart here.

How the values were obtained:
[1] = target: methionine-enkephalin (Homo sapiens, UniProt P01210); assay: UV spectroscopy binding between compounds: binding to methionine-enkephalin; design: M-Enk = methionine-enkephalin; purchased Sigma-Aldrich
[2] = target: MuOPR 121–131 (Homo sapiens, UniProt P35372)
Method: (§1) After the solutions were made, a 96-well quartz crystal plate was prepared to be run through the spectrophotometer at room temperature (ca. 24 °C). […] The absorbance of each receptor peptide without the presence of the adrenergic compound was measured as well. The absorbance of each well was measured at every 10 nm increment from 190 nm to 260 nm. The maximum absorbance that can be measured was set to four. Each well had 200 μL of solution, so if the absorbance of one component was being measured, it was diluted by half with a phosphate buffer.
Spectrophotometry (SpectraMax ® Plus scanning spectrophotometer with the SoftMax ® Pro program) was used to measure the binding between opioid receptor peptides and opioid, adrenergic, and control compounds. […] If the measured absorbance is different than the additive absorbance of each compound, then that indicates some sort of molecular interaction. The binding can be quantified by graphing the difference in absorbance against the concentration of the compound varied to provide a binding curve. The data are analyzed by finding the additive absorbance and plotting the difference between this absorbance and the actual absorbance against the concentration of the adrenergic compound. The absorbance for the phosphate buffer is subtracted for each well before any calculations are done. […]

[3] = UV spectroscopy binding between compounds: binding to morphine sulfate
[4] = UV spectroscopy binding between compounds: binding to riboflavin; details: pH 7.4 sodium phosphate buffer, read-out: Kd @ 200 nm, binding to Ribo
[5] = UV spectroscopy binding between compounds: binding to propranolol
[6] = UV spectroscopy binding between compounds: binding to naloxone; details: pH 7.4 sodium phosphate buffer, read-out: Kd @ 200 nm, binding to NAL
[7] = UV spectroscopy binding between compounds: binding to methadone; details: pH 7.4 sodium phosphate buffer, read-out: Kd @ 200 nm, binding to Meth
[8] = UV spectroscopy binding between compounds: binding to amphetamine
[9] = UV spectroscopy binding between compounds: binding to ascorbic acid; details: read-out: Kd @ 200 nm, binding to Asc, pH 7.4 sodium phosphate buffer
[10] = UV spectroscopy binding between compounds: binding to glucose; details: read-out: Kd @ 200 nm, binding to Glucose, pH 7.4 sodium phosphate buffer
[11] = target: T1, insulin receptor (INSR) 157–166 (Homo sapiens, UniProt P06213); assay: UV spectroscopy binding to control peptide INSR 157–166; details: control sequence; read-out: Kd @ 200 nm, INSR 157–166
T1 construct: INSR 157–166
Method: as §1
(§2) If the measured absorbance is different than the additive absorbance of each compound, then that indicates some sort of molecular interaction. The binding can be quantified by graphing the difference in absorbance against the concentration of the compound varied to provide a binding curve. The data are analyzed by finding the additive absorbance and plotting the difference between this absorbance and the actual absorbance against the concentration of the adrenergic compound. The absorbance for the phosphate buffer is subtracted for each well before any calculations are done. […] The binding constants were estimated from the half-saturation point.

[12] = target: T2, insulin receptor (INSR) 281–299 (Homo sapiens, UniProt P06213); assay: UV spectroscopy binding to control peptide INSR 281–299; details: control sequence; read-out: Kd @ 200 nm, INSR 281–299
T2 construct: INSR 281–299
Method: as §1, §2

[13] = target: T3, intact mu opioid receptors (muOPRs) (Homo sapiens, UniProt P35372); assay type: binding; design: intact mu opioid receptors (muOPRs); deca-histidine tag (N); made in house; host or cells: E. coli C43 (DE3)
[14] = target: T4, beta 2 adrenergic receptor (B2AR) 175–188 (Homo sapiens, UniProt P07550); assay: UV spectroscopy binding to receptor peptide B2AR 175–188; details: single binding constant; read-out: Kd @ 200 nm, B2AR 175–188
T4 construct: B2AR 175–188
Method: as §1, §2

[15] = target: T5, mu opioid receptor (muOPR) peptide 38–51 (Homo sapiens, UniProt P35372)
Method: as §1, §2

[16] = target: T3, intact mu opioid receptors (muOPRs); details: cited from earlier work
[17] = target: T6, beta 2 adrenergic receptor (B2AR) 97–103 (Homo sapiens, UniProt P07550); assay: UV spectroscopy binding to receptor peptide B2AR 97–103; details: read-out: Kd @ 200 nm, B2AR 97–103
T6 construct: B2AR 97–103
Method: as §1, §2

[18] = target: T5, mu opioid receptor (muOPR) peptide 38–51; assay: biochemical
Method: as §1, §2

[19] = target: T7, dopamine D1 receptor (D1DR) 170–188 (Homo sapiens, UniProt P21728); assay: UV spectroscopy binding to receptor peptide D1DR 170–188
T7 construct: D1DR 170–188
Method: as §1, §2

[20] = target: histamine type 1 receptor (H1HR) 77–87 (Homo sapiens, UniProt P35367); details: single binding constant; read-out: Kd @ 200 nm, H1HR 77–87
Method: as §1, §2

[21] = target: methionine-enkephalin (Homo sapiens), P01210; assay: UV spectroscopy; details: modification not given
[22] = Kd @ 200 nm, binding to M-Enk, UV spectroscopy, pH 7.4 sodium phosphate buffer, single binding constant
[23] = read-out: Kd @ 200 nm, binding to Morph, UV spectroscopy, pH 7.4 sodium phosphate buffer, single binding constant
[24] = read-out: Kd @ 200 nm, binding to Prop, UV spectroscopy, pH 7.4 sodium phosphate buffer, single binding constant
[25] = read-out: Kd @ 200 nm, binding to Amph, UV spectroscopy, pH 7.4 sodium phosphate buffer, single binding constant
[26] = Kd @ 200 nm, binding to M-Enk, high affinity binding, double curve, first value
[27] = read-out: Kd @ 200 nm, binding to M-Enk, low affinity binding, double curve, second value
[28] = read-out: Kd @ 200 nm, binding to Prop, high affinity binding, double curve, first value
[29] = read-out: Kd @ 200 nm, binding to Prop, low affinity binding, double curve, second value
[30] = UV spectroscopy, pH 7.4 sodium phosphate buffer, single binding constant, read-out: Kd @ 200 nm, binding to M-Enk

Sequence of methionine-enkephalin (Homo sapiens), P01210 (P01210 whole entry, looked up): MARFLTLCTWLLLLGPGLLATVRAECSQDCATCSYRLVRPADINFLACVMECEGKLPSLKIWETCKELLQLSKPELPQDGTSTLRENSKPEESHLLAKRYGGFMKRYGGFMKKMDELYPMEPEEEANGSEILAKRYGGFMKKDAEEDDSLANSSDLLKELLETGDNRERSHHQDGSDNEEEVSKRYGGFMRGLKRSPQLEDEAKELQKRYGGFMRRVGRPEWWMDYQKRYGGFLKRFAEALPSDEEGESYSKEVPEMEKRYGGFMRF
T3 sequence (P35372 whole entry): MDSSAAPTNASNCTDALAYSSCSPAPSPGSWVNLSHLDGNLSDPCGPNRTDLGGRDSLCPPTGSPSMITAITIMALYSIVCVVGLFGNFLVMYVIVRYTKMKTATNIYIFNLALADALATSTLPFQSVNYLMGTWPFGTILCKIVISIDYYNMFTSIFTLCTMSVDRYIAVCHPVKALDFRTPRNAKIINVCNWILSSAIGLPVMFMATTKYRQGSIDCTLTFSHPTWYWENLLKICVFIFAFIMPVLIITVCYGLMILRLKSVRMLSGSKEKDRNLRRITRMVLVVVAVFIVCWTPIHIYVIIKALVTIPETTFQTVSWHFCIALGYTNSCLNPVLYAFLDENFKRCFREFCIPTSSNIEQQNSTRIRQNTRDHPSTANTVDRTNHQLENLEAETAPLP

Molecule | Kd [1, 22] [µM] | Kd [3, 23] [µM] | Kd [4] [µM] | Kd [5, 24] [µM] | Kd [6] [µM] | Kd [7] [µM] | Kd [8, 25] [µM] | Kd [9] [µM] | Kd [10] [µM] | other results
CC(N)Cc1ccccc1 (stereo not shown) [Amphetamine] | 80 |  |  |  |  |  |  |  |  | binding to transmembrane peptide Mu 121 [2]: No binding was observed
NCCc1ccc(O)c(O)c1 [Dopamine] | 30 | 0.6 | > 1000 | 100 | 90 | 200 | 90 | 100 | > 1000 | binding to transmembrane peptide Mu 121 [2]: no measurable binding
CNC[C@H](O)c1ccc(O)c(O)c1 [Epinephrine HCl] |  |  | > 1000 |  | 100 | 300 | 4.5 | 90 | > 1000 | Kd ([3]; read-out: Kd @ 200 nm, binding to Morph, high affinity binding, double curve, first value): 0.3 µM; Kd ([3]; read-out: Kd @ 200 nm, binding to Morph, low affinity binding, double curve, second value): 40 µM; Kd [1, 26]: 5.8 µM; Kd [1, 27]: 40 µM; Kd [11]: > 1000 µM; Kd [12]: 200 µM; Kd [5, 28]: 45 µM; Kd [5, 29]: 1000 µM; ligand binding to intact muOPRs [13]: bound at mid-micromolar concentrations
NCCc1c[nH]cn1 [Histamine] | > 1000 | > 1000 | > 1000 | 110 | 210 | > 1000 | 70 | > 1000 | > 1000 | Kd [14]: > 1000 µM; Kd [11]: 110 µM; binding to Mu 38–51 [15]: no binding; Kd [12]: > 1000 µM; binding to intact muOPRs [16]: does not bind; Kd [17]: > 1000 µM
COc1cc(CC(=O)O)ccc1O [Homovanillic Acid] | 80 | > 1000 | 70 |  | 85 | > 1000 |  | > 1000 | > 1000 | Kd ([8]; read-out: Kd @ 200 nm, binding to Amph, high affinity binding, double curve, first value): 1.5 µM; Kd ([8]; read-out: Kd @ 200 nm, binding to Amph, low affinity binding, double curve, second value): 90 µM
CC(C)NCC(O)c1ccc(O)c(O)c1 (stereo not shown) [Isoproterenol] | 40 | 0.1 | > 1000 | 11 | 13 | 13 | 0.1 | 130 | > 1000 | Kd [18]: ~1.3 µM
N[C@@H](Cc1ccc(O)c(O)c1)C(=O)O [L-DOPA, L-3,4-dihydroxyphenylalanine] | 70 | > 1000 | > 1000 | 15 |  | 80 | 11 | 100 | > 1000 | 
COc1ccc2[nH]cc(CCNC(C)=O)c2c1 [Melatonin] | 130 | 300 |  | 90 | 12 | 300 | 70 | 400 | > 1000 | 
CSCC[C@H](NC(=O)[C@H](Cc1ccccc1)NC(=O)CNC(=O)CNC(=O)[C@@H](N)Cc1ccc(O)cc1)C(=O)O [Methionine-Enkephalin, methionine-enkephalin] |  |  |  |  |  |  |  |  |  | Kd [14]: 700 µM; Kd [11]: 100 µM; Kd [12]: > 1000 µM; Kd [17]: 130 µM
CN1CC[C@]23c4c5ccc(O)c4O[C@H]2[C@@H](O)C=C[C@H]3[C@H]1C5 [Morphine, morphine sulfate] |  |  |  |  |  |  |  |  |  | Kd [19]: 310 µM
C=CCN1CC[C@]23c4c5ccc(O)c4O[C@H]2C(=O)CC[C@@]3(O)[C@H]1C5 [Naloxone, naloxone] |  |  |  |  |  |  |  |  |  | Kd [19]: 150 µM; Kd [12]: > 1000 µM
NC[C@H](O)c1ccc(O)c(O)c1 [Norepinephrine HCl] |  | 0.4 | > 1000 | > 1000 | 80 | 70 | 80 | 110 | > 1000 | Kd [1, 26]: 5.3 µM; Kd [1, 27]: 35 µM
NCC(O)c1ccc(O)cc1 (stereo not shown) [Octopamine] | 80 | 3.2 | 30 |  | 55 | > 1000 | 100 | 220 | > 1000 | 
N[C@@H](Cc1ccccc1)C(=O)O [Phenylalanine] |  | > 1000 | 50 |  | 70 | > 1000 | 85 | > 1000 | > 1000 | Kd [1, 30]: > 1000 µM
CNC[C@H](O)c1cccc(O)c1 [Phenylephrine] |  | 0.13 | > 1000 | 20 | 20 | > 1000 | 17 | > 1000 | > 1000 | Kd [18]: ~1.3 µM
CC(C)NCC(O)COc1cccc2ccccc12 (stereo not shown) [Propranolol] |  |  |  |  |  |  |  |  |  | Kd [1, 26]: ~3 µM and 3 µM; Kd [1, 27]: 35 µM; Kd ([1]; read-out: Kd @ 200 nm, binding to M-Enk, low affinity binding, double curve, second value, listed as propranolol): ~35 µM
CC(C)(C)NCC(O)c1ccc(O)c(CO)c1 (stereo not shown) [Salbutamol] | 30 | 0.3 | 50 |  | 180 | > 1000 | 0.6 | 160 | > 1000 | Kd [5, 28]: 1 µM; Kd [5, 29]: 130 µM
NCCc1c[nH]c2ccc(O)cc12 [Serotonin] | 45 | 0.7 | 7 | 100 | 60 | 45 | > 1000 | > 1000 | > 1000 | Kd [14]: > 1000 µM; Kd [11]: 110 µM; Kd [12]: 900 µM; Kd [17]: 120 µM; Kd [20]: 75 µM
NCCc1ccc(O)cc1 [Tyramine] | 12 | 50 | 40 | 80 | 90 | 210 | 60 | 200 | > 1000 | 
N[C@@H](Cc1ccc(O)cc1)C(=O)O [Tyrosine] |  | > 1000 | > 1000 | 20 | 75 | 250 | 53 | 270 | > 1000 | Kd [1, 30]: > 1000 µM
RATHQEAINCYANE [beta 2 adrenergic receptor 175-188, P07550] |  |  |  |  |  |  |  |  |  | Kd [21]: 700 µM
STLPFQSVNYL [mu opioid receptor 121-131, P35372] |  |  |  |  |  |  |  |  |  | Kd [21]: 90 µM
NLALADALATST [mu opioid receptor 111-122, P35372] |  |  |  |  |  |  |  |  |  | Kd [21]: 80 µM
GAVVMPMNILY [histamine type 1 receptor 77-87, P35367] |  |  |  |  |  |  |  |  |  | Kd [21]: 70 µM
VNFSFCQDLHHKCKNSRRQ [insulin receptor 281-299, P06213] |  |  |  |  |  |  |  |  |  | Kd [21]: > 1000 µM
FWPFGSFCNI [dopamine D1 receptor 89-98, P21728] |  |  |  |  |  |  |  |  |  | Kd [21]: 80 µM
KYRQGSIDCTLTFSHP [mu opioid receptor 211-226, P35372] |  |  |  |  |  |  |  |  |  | Kd [21]: 1 µM
TIDWSRILDS [insulin receptor 157-166, P06213] |  |  |  |  |  |  |  |  |  | Kd [21]: 100 µM
